Assay results: PMC5931107, “Clinical pharmacodynamic/exposure characterisation of the multikinase inhibitor ilorasertib (ABT-348) in a phase 1 dose-escalation trial” (British Journal of Cancer, 2018)
Marks after values point to notes of the source that are not given here.

Experiments:
[1] = Plasma pharmacokinetics, Arm I (oral QD), phase 1 trial; assay type: in vivo, human; settings: for AUC(0-t): AUCt
Procedure: Pharmacokinetics of ilorasertib were evaluated in the dose-escalation cohort on blood samples that were collected on cycle 1 days 1 and 15. Parameters determined: Cmax, time to Cmax (Tmax), terminal phase elimination half-life (t1/2), clearance, apparent oral clearance (CL/F), and area under the plasma concentration-time curve from time 0 to time of last measurable concentration (AUCt) and from time 0 to infinity (AUC∞). For Arm I, blood samples were collected prior to dosing and at 0.5, 1, 2, 3, 4, 6, 8, 10 or 12, and 24 h after dosing on cycle 1 days 1 and 15; of note, for institutions not able to collect the 10- or 12-h post-dose sample, the 24-h sample was replaced with 22-h and 28-h post-dose samples. In Arm II, for the first dose, blood samples were collected pre-dose and at 1, 2, 3, and 4 h post-dose on cycle 1 days 1 and 15; for the second dose, samples were collected pre-dose and at 1, 2, 3, 4, 18, and 24 h after second dose on cycle 1 days 1 and 15. In Arm III, blood samples were collected prior to infusion, at 1 h 55 min (just before end of infusion), and at 0.5, 1, 2, 4, 6, 8, 10, and 24 h after end of infusion on cycle 1 days 1 and 15; here also, for institutions not able to collect the 8-h or 10-h after-end-of-infusion samples, the 24-h sample was replaced with 22-h and 28-h post-dose samples. The liquid chromatography (LC)-mass spectrometry (MS)/MS method was developed and validated in the Bioanalysis Department of AbbVie. Fifty microliter of human plasma (K2EDTA as anticoagulant) was fortified with 300 μL of deuterium-stable labelled internal standard and mixed well. A HybridSPE precipitation plate (50 mg/96 wells, Supelco Analytical, Munich, Germany) was used to directly load and elute (under slight vacuum) the fortified samples into a clean collection plate. Samples were dried before reconstitution with 100 μL of 20/80 (v/v) acetonitrile/water, and injected for LC-MS/MS analysis. A Halo C8 (Wilmington, DE, USA; 2.7 μm, 2.1 × 30 mm) was used on an Agilent 1290 Infinity UPLC pump (Agilent Technologies, Santa Clara, CA) to carry out the separation. An isocratic condition with 25/75/0.1 (v/v/v) acetonitrile/water/98% formic acid was used as the mobile phase. The flow rate was set to be 0.6 mL/min. An MPS 3 C ([…] Ruhr, Germany) autosampler was used to introduce samples onto the UPLC system. An API 4000 mass spectrometer (Applied Biosystems, Foster City, CA) was used in the multiple reactions monitoring mode for the detection and quantitation of analyte. Descriptive statistics were used for demographic variables. The numbers and percentages of patients with treatment-emergent AEs (TEAEs) were tabulated using the Medical Dictionary for Regulatory Activities version 16.0 system organ class and preferred term, and further classified according to CTCAE version 4.0 criteria. The safety data set included all patients who received one or more doses of ilorasertib. The pharmacokinetic data set included all patients who received one or more doses of ilorasertib and had one or more pharmacokinetic samples. Values for pharmacokinetic parameters were determined using non-compartmental methods, with data analysed separately for each arm. A repeated measures analysis was performed for Tmax and dose-normalised Cmax, AUCt, and AUC∞. The model included random effects for patient and fixed effects for dose level, day, and the interaction of dose level and day. To assess effects of exposure on pharmacodynamic biomarkers, Cmax was employed as the directly measured marker of exposure for the rapid changes in DBP and PlGF pre-steady-state, while AUC∞ reflected exposure variability at the time of post-multiple-dose skin biopsy. Descriptive statistics were used to summarise ECOG performance status. The efficacy data set included all patients who received one or more doses of ilorasertib.

VEGFR3 = tested on: VEGFR3; parameters: method as in PMID 22935731; settings: read-out: Cellular PD marker IC50 (95% confidence limits); cited from earlier work
PDGFR-α = tested on: PDGFR-α; parameters: method as in PMID 22935731; settings: PDGFR-α cellular phosphorylation, ligand stimulated; read-out: Cellular PD marker IC50 (95% confidence limits); cited from earlier work
[2] = parameters: method as in PMID 25933833; settings: doses above 80 mg PO; data from haematologic malignancies study i.v. arm; cited from earlier work
advanced solid tumours = test: Tumour response, RECIST version 1.1; assay type: in vivo, human; settings: Arm II
Procedure: Disease effect endpoints were determined using Response Evaluation Criteria In Solid Tumors version 1.1. Tumour burden assessment was conducted within 21 days prior to cycle 1 day 1, every 8 weeks thereafter, and at the final visit if not performed in the past 4 weeks.

CSF-1R = tested on: CSF-1R; parameters: method as in PMID 22935731; settings: CSF-1R cellular phosphorylation, ligand stimulated; read-out: Cellular PD marker IC50 (95% confidence limits); cited from earlier work
[3] = 40 mg BID, basal cell carcinoma patient
[4] = 230 mg BID, adenocarcinoma of unknown primary site

Compound: Nc1ncc(-c2cnn(CCO)c2)c2scc(-c3ccc(NC(=O)Nc4cccc(F)c4)cc3)c12 [ilorasertib, Ilorasertib]
- t1/2 (harmonic mean) ([1]; Arm I PO QD all doses, day 1, N=21): 12.2 ± 6.9^d h
- half-life ([1]; human, in vivo, Mean t1/2): ~12 h
- Tmax ([1]; human, in vivo, Time of peak plasma concentration): ~4 h
- Dose proportionality of exposure (Cmax and AUC) ([1]; human, in vivo, iv): approximately dose proportional
- half-life ([1]; human, in vivo, po, 10 mg, t1/2 (harmonic mean)): 11.7 ± 1.4 h
- AUCt ([1]; human, in vivo, po, 20 mg): 1.76 (3.23, 0.29) μg•h/mL
- AUC∞ ([1]; human, in vivo, po, 20 mg): 1.46 (2.41, 0.51) μg•h/mL
- Cmax ([1]; human, in vivo, po, 20 mg): 0.08 (0.14, 0.02) μg/mL
- Tmax ([1]; human, in vivo, po, 20 mg): 5.0 (4.0, 6.0) h
- AUC(0-t) ([1]; human, in vivo, po, 20 mg): 1010 ng·h/mL
- AUC(0-inf) ([1]; human, in vivo, po, 20 mg): 2260 ng·h/mL
- Tmax ([1]; human, in vivo, po, 20 mg, Tmax): 5 h
- AUCt ([1]; human, in vivo, po, 40 mg): 1.15 µg·h/mL
- AUC∞/dose ([1]; human, in vivo, po, 40 mg): 41.0 ng·h/mL/mg
- CL/F ([1]; human, in vivo, po, 40 mg): 24.4 L/h
- AUC(0-t) ([1]; human, in vivo, po, 40 mg): 640 ng·h/mL
- AUC(0-inf) ([1]; human, in vivo, po, 40 mg): 1640 ng·h/mL
- Tmax ([1]; human, in vivo, po, 40 mg, Tmax): 8 h
- half-life ([1]; human, in vivo, po, 40 mg, t1/2 (harmonic mean)): 11.5 h
- AUCt ([1]; human, in vivo, po, 80 mg): 1.59 ± 1.04 µg·h/mL
- AUC∞ ([1]; human, in vivo, po, 80 mg): 2.75 ± 2.15 µg·h/mL
- t1/2 (harmonic mean) ([1]; human, in vivo, po, 80 mg): 16.8 ± 2.8 h
- AUC(0-t) ([1]; human, in vivo, po, 80 mg): 1900 ± 1100 ng·h/mL
- AUC(0-inf) ([1]; human, in vivo, po, 80 mg): 2820 ± 1540 ng·h/mL
- Cmax ([1]; human, in vivo, po, 80 mg, Cmax): 220 ± 100 ng/mL
- Tmax ([1]; human, in vivo, po, 80 mg, Tmax): 4 ± 2 h
- half-life ([1]; human, in vivo, po, 80 mg, t1/2 (harmonic mean)): 16 ± 1.8 h
- AUCt ([1]; human, in vivo, po, 120 mg): 2.25 ± 0.61 µg·h/mL
- AUC∞ ([1]; human, in vivo, po, 120 mg): 4.31 ± 2.38^c μg•h/mL
- Cmax ([1]; human, in vivo, po, 120 mg): 250 ± 140 ng/mL
- Tmax ([1]; human, in vivo, po, 120 mg): 4.1 ± 2.2 h
- AUC(0-t) ([1]; human, in vivo, po, 120 mg): 3600 ± 2500 ng·h/mL
- AUC(0-inf) ([1]; human, in vivo, po, 120 mg): 5400 ± 2620 ng·h/mL
- Cmax ([1]; human, in vivo, po, 120 mg, Cmax): 490 ± 330 ng/mL
- Tmax ([1]; human, in vivo, po, 120 mg, Tmax): 3.8 ± 2.2 h
- AUC∞ ([1]; human, in vivo, po, 140 mg): 4.13 (4.96, 3.31)^a μg•h/mL
- Cmax ([1]; human, in vivo, po, 140 mg): 330 ± 190 ng/mL
- Tmax ([1]; human, in vivo, po, 140 mg): 10.1 ± 12.3 h
- t1/2 (harmonic mean) ([1]; human, in vivo, po, 140 mg): 15.8 ± 23.6 h
- AUC(0-inf) ([1]; human, in vivo, po, 140 mg): 5400 ± 1800 ng·h/mL
- Cmax ([1]; human, in vivo, po, 140 mg, Cmax): 240 ± 130 ng/mL
- half-life ([1]; human, in vivo, po, 140 mg, t1/2 (harmonic mean)): 10.1 h
- Tmax ([1]; human, in vivo, po, 180 mg): 2.0 h
- t1/2 (harmonic mean) ([1]; human, in vivo, po, 180 mg): 11.6 h
- Tmax ([1]; human, in vivo, po, 180 mg, Tmax): 4 ± 2 h
- half-life ([1]; human, in vivo, po, 180 mg, t1/2 (harmonic mean)): 9.5 ± 2.7 h
- Tmax ([1]; human, in vivo, po, Tmax): 4.2 ± 1.8 h
- half-life ([1]; human, in vivo, po, t1/2 (harmonic mean)): 14 ± 4 h
- IC50 (VEGFR3): 2 nM
- IC50 (PDGFR-α): 16 nM
- Best response (advanced solid tumours; [3]): partial response
- Best response (advanced solid tumours; [4]): partial response
